US20210169848A1, “USE OF NEUROKININ-1 ANTAGONISTS TO TREAT PRURITUS” (VYNE THERAPEUTICS INC., priority 2018, published 2021)

How the values were obtained:
patients with pruritus = assay: Pooled clinical studies, age-related effects of serlopitant (NRS change, NRS 4-point responder rate); format: in vivo, human; settings: older patients (e.g., 40 years or older) compared with younger patients; pooled 1 mg and 5 mg
Protocol: Data obtained from the clinical studies described in Examples 6-8 for patients administered 1 mg and 5 mg serlopitant were pooled and evaluated on the basis of the age of the subjects.

[1] = system: subjects with idiopathic pruritus; assay: Phase II randomized, double-blind, placebo-controlled clinical study of serlopitant for chronic pruritus (post hoc WI-NRS 4-point responder analysis); format: in vivo, human; settings: for WI-NRS 4-point Responder Rate at Week 6: 6 weeks, 3-tablet loading dose Day 1
[2] = cited from earlier work

Structure (SMILES) | response to serlopitant therapy as function of age (NRS change from baseline, NRS 4-point Responder Rate) (patients with pruritus) | WI-NRS 4-point Responder Rate at Week 6 ([1]; all patients, 0.25 mg once daily oral) | WI-NRS 4-point Responder Rate at Week 6 ([1]; all patients, 1 mg once daily oral) | WI-NRS 4-point Responder Rate at Week 6 ([1]; all patients, 5 mg once daily oral) | WI-NRS 4-point Responder Rate at Week 6 ([1]; patients with inflammatory skin disease, 0.25 mg once daily oral) | WI-NRS 4-point Responder Rate at Week 6 ([1]; patients with inflammatory skin disease, 1 mg once daily oral) | WI-NRS 4-point Responder Rate at Week 6 ([1]; patients with inflammatory skin disease, 5 mg once daily oral) | response to serlopitant therapy, patients without vs with inflammatory skin disease ([1]; patients without inflammatory skin disease compared with patients with inflammatory skin disease) | WI-NRS 4-point Responder Rate at Week 6 ([1]; patients without inflammatory skin disease, 0.25 mg once daily oral) | WI-NRS 4-point Responder Rate at Week 6 ([1]; patients without inflammatory skin disease, 1 mg once daily oral) | WI-NRS 4-point Responder Rate at Week 6 ([1]; patients without inflammatory skin disease, 5 mg once daily oral) | thermodynamic stability of polymorph ([2]; Form I relative to Form II of free base serlopitant) | hygroscopicity ([2]; all tested relative humidity conditions)
CC(O[C@H]1CC[C@@H]2CN(C3=CC(=O)CC3)C[C@H]2[C@@H]1c1ccc(F)cc1)c1cc(C(F)(F)F)cc(C(F)(F)F)c1 (stereo partly drawn) [serlopitant, 3-[(3aR,4R,5S,7aS)-5-[(1R)-1-[3,5-bis(trifluoromethyl)phenyl]cthoxy]-4-(4-fluorophenyI)-1,3,3a,4,5,6,7,7a-octahydroisoindol-2-yl]cyclopent-2-en-1-one] | responded better | 38.5% (n = 52) | 32.7% (n = 55) | 46.2% (n = 52) | 30.8% (n = 26) | 29.6% (n = 27) | 33.3% (n = 18) | appeared to respond better | 46.2% (n = 26) | 35.7% (n = 28) | 52.9% (n = 34) |  | 
C[C@@H](O[C@H]1CC[C@@H]2CN(C3=CC(=O)CC3)C[C@H]2[C@@H]1c1ccc(F)cc1)c1cc(C(F)(F)F)cc(C(F)(F)F)c1 [Form I] |  |  |  |  |  |  |  |  |  |  |  | thermodynamically more stable below 70 °C | non-hygroscopic
